From publication PMC8659060, “Neuroprotective Potential of Synthetic Mono-Carbonyl Curcumin Analogs Assessed by Molecular Docking Studies” (Molecules, 2021)
Read-outs that look alike come from different tables or passages of the source.

How the values were obtained:
[1] = tested on: scopolamine-induced memory impairment in mice; experiment: Novel object recognition test (NORT), scopolamine-induced memory impairment; type: in vivo, Balb/C mice; details: for % DI in exploring the novel object versus scopolamine-treated group (in words): long-term memory, donepezil 2 mg/kg; for % DI in exploring the novel object versus scopolamine-treated group (in words) / Exploration time for the novel object in the test phase (in words): h compounds 7.5 and 15 mg/kg; for Exploration time for the novel object in the test phase (in words): DZP 2 mg/kg; for % DI versus scopolamine-treated group (in words): 7.5 and 15 mg/kg p.o.
Protocol: (§1) Balb/C mice iwth a weight of (17–23 gm) were procured from the NIH (National Institute of Health), Islamabad, which were kept for breeding under favorable conditions in the animal house of the Pharmacy Department, Shaheed Benazir Bhutto University Sheringal Dir (Upper). Light/dark cycle of about 12 h each was maintained, with relative humidity of 50–55% at 22–25 °C. This work was conducted with approval from the Departmental Ethical Committee (SBBU/IEC-20-02) of the Scientific Procedure Issue-I of the University of Malakand in compliance with provision of the 2008 Animal Byelaws.
(§2) Mice were divided into thirteen groups with 6 mice in each group.
(§3) Group I. Normal control group (vehicle treated) received 10 mL/kg (i.p.) normal saline.
(§4) Group IV–XIII. Sample (curcumin analog)-treated groups. Synthesized curcumin analogs were administered in doses of 7.5 mg/kg and 15 mg/kg (p.o.), respectively.
(§5) The groups were kept for 7 days at various treatments doses.
The synthesized curcumin analogs were tested for possible memory enhancement potential by using novel object recognition test apparatus, which was designed using plexi glass with dimension of 40 cm × 40 cm × 30 cm. The mice, after acclimatization period, were allowed to move for 2–3 min one day before the test for habituation. In the two corners of the NORT apparatus, two identical objects were placed on the test day in the sample phase (T1), and the object exploration time was recorded. The objects were regarded as being explored when the mice touched the objects or directed their nose toward the object at a distance of less than 2 cm, […], the test phase (T2) was started, in which one of the familiar objects was replaced with a novel (new) object. Mice again freely explored the objects in similar manner to that in T1, and the exploration time for the novel (new) object and the familiar (F) object were noted separately. The DI (discrimination index) was measured using the following formula: DI=N−F/N+F

[2] = tested on: scopolamine-induced amnesia in mice; experiment: Elevated plus maze (EPM), scopolamine-induced amnesia; type: in vivo, Balb/C mice; details: then scopolamine 1 mg/kg i.p., mean ± SEM, n = 6
Protocol: as §1, §2, §3, §4, §5
The EPM consisted of two open arms and two closed arms with dimensions of 16 cm × 5 cm × 12 cm, and was made from two poly acrylic sheets and designed as a plus sign with a central platform with dimensions of 5 cm × 5 cm, which was elevated 25 cm from the floor on a wooden stand. Mice were placed in the open arm in such a position that their direction was facing away from the central platform; then, the transfer latency time (TLT) was noted when the mice moved to the closed arm with its four legs from the open arm and then returned to their home cage. […] The following formula was used for calculation of inflexion ratio (IR). IR=L0−L1/L0 where L1 = initial transfer latency (s) and L0 = retention transfer latency (s).

BChE = target: T1, BChE (Equus caballus, UniProt P81908); experiment: biochemical; details: for inhibition at 62.5 µg/mL / inhibition at 125 µg/mL / inhibition at 250 µg/mL / inhibition at 500 µg/mL / inhibition at 1000 µg/mL: read-out: BChE percent enzyme inhibition, Mean ± SEM
T1 construct: obtaining AChE and BChE enzymes from electric eel and equine serum, respectively; from tissue; host or cells: equine serum
T1 sequence (P81908 whole entry): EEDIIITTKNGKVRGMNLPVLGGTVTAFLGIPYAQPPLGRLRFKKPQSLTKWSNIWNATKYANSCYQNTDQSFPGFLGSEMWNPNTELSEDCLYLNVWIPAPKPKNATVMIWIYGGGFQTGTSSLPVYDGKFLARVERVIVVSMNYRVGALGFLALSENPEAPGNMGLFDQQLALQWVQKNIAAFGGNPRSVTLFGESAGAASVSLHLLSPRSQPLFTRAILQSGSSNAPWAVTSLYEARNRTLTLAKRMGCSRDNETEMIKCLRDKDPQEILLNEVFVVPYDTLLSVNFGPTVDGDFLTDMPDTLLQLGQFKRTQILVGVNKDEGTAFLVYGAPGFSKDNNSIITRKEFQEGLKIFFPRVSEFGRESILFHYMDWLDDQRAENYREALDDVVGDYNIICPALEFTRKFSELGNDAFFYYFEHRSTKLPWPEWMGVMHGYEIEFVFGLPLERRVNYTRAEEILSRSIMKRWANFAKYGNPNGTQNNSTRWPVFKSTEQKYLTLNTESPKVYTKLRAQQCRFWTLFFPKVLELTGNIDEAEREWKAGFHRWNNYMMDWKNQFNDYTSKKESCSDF
Protocol: (§6) Evaluation of anticholinesterase activity of the synthesized compounds was performed according to Ellman’s method and was determined by obtaining AChE and BChE enzymes from electric eel and equine serum, respectively. DMSO was used for the dissolution of test samples (1 mg/mL), which were diluted in phosphate buffer (0.1 M) to concentrations from 1000 to 62.5 µg/mL. Phosphate buffer in 0.1 M, pH 8.0 was used for the dilution of 518 U/mg AChE and 7–16 U/mg BChE to obtain final concentrations of 0.03 U/mL and 0.01 U/mL for AChE and BChE, respectively. Substrate solutions of 0.5 mM ATchI, 0.2273 mM DTNB and 0.5 mM BTchI in distilled water were made and maintained separately in Eppendorf tubes at 8 °C in a refrigerator. The assay was started by adding 5 µL enzyme solution to a cuvette, then adding 205 µL test sample followed by 5 µL DTNB reagent. A 5 µL volume of substrate solution was added, and the solution mixture was maintained for 15 min in water bath at 30 °C. A spectrophotometer was used to measure absorbance at 412 nm at 30 °C with a reaction time of 4 min. […] The following formula was used for calculation of % enzyme inhibition.

AChE = target: T2, AChE (Electrophorus electricus, UniProt O42275); experiment: biochemical; details: for inhibition at 62.5 µg/mL / inhibition at 125 µg/mL / inhibition at 250 µg/mL / inhibition at 500 µg/mL / inhibition at 1000 µg/mL: read-out: AChE percent enzyme inhibition, Mean ± SEM
T2 construct: obtaining AChE and BChE enzymes from electric eel and equine serum, respectively; from tissue; host or cells: electric eel
T2 sequence (O42275 24-633): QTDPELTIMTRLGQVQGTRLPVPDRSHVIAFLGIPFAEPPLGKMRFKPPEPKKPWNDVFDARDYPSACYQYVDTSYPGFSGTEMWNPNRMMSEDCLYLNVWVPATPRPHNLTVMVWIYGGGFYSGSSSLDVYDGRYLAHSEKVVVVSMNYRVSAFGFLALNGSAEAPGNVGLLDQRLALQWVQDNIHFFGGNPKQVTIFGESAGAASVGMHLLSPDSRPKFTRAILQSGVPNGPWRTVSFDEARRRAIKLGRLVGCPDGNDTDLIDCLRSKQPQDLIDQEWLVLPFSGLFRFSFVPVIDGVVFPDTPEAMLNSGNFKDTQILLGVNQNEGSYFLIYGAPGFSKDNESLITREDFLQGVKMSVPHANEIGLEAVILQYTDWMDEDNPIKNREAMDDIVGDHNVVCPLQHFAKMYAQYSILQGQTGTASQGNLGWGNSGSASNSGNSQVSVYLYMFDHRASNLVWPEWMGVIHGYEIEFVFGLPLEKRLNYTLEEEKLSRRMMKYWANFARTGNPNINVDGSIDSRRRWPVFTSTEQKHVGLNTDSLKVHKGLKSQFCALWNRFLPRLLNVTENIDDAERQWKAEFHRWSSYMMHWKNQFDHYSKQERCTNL
Protocol: as §6

[3] = tested on: T3, BChE in the hippocampus region of mouse brain; type: in vivo; details: pretreatment, then scopolamine, n = 6
T3 construct: from tissue; host or cells: mouse brain hippocampus (supernatant of homogenate)
Protocol: as §5
(§7) The mice were sacrificed immediately after the behavioral study by cervical dislocation to provide quick and painless death to each animal before decapitation. Brain of each animal was excised in phosphate buffer saline (chilled) and incorporated into biochemical biomarker analysis.
(§8) Cholinesterase (AChE and BChE) levels were determined in the excised brain hippocampus using Ellman’s method with slight modification. Supernatant (0.4 mL), 0.1 M/L, pH 8 phosphate buffer (2.6 mL), and 100 µL of DTNB (5,5′-dithiobis-2-nitrobenzoic acid) and were added into cuvette and mixed. Spectrophotometer at 412 nm was run and absorbance was measured several times, then […] acetyl thiocholine iodide/butyrylthiocholine chloride was mixed into the reaction as substrate at an interval of 2 min, and variation in absorbance was noted and the changes in absorbance per min were recorded. The following formula was used for calculation of cholinesterase level: R = 5.74 × 10^−4 × A/CO where ‘R’ is the moles (rate) of substrate hydrolyzed/min/mg of protein, (A) is the change in absorbance/min, and ‘CO’ is concentration (20 mg/mL) of protein.

[4] = tested on: T4, AChE in the hippocampus region of mouse brain; type: in vivo; details: pretreatment, then scopolamine, n = 6
T4 construct: from tissue; host or cells: mouse brain hippocampus (supernatant of homogenate)
Protocol: as §5, §7, §8

[5] = Ellman's method, 1000 to 62.5 μg/mL, n = 3, read-out: BChEI (IC50) (converted)
[6] = Ellman's method, 1000 to 62.5 μg/mL, n = 3, read-out: AChEI (IC50) (converted)

Row | SMILES | % DI in exploring the novel object versus scopolamine-treated group (in words) [1] | Exploration time for the novel object in the test phase (in words) ([1]; short-term memory) | % DI versus scopolamine-treated group (in words) ([1]; short-term memory) | Retention (transfer latency time, TLT) ([2]; 7.5 mg/kg p.o. for 7 days) | Retention (transfer latency time, TLT) ([2]; 15 mg/kg p.o. for 7 days) | inhibition at 62.5 µg/mL (BChE; 62.5 µg/mL) | inhibition at 125 µg/mL (BChE; 125 µg/mL) | inhibition at 250 µg/mL (BChE; 250 µg/mL) | inhibition at 500 µg/mL (BChE; 500 µg/mL) | inhibition at 1000 µg/mL (BChE; 1000 µg/mL) | IC50 (BChE; [5]) | inhibition at 62.5 µg/mL (AChE; 62.5 µg/mL) | inhibition at 125 µg/mL (AChE; 125 µg/mL) | inhibition at 250 µg/mL (AChE; 250 µg/mL) | inhibition at 500 µg/mL (AChE; 500 µg/mL) | inhibition at 1000 µg/mL (AChE; 1000 µg/mL) | IC50 (AChE; [6]) | Reversal of scopolamine-increased hippocampus BChE level (in words) [3] | Reversal of scopolamine-increased hippocampus AChE level (in words) [4] | also measured
1 | COc1cc2c(cc1OC)C(=O)C(CC1CCN(Cc3ccccc3)CC1)C2 (stereo not drawn) [Donepezil, reference compound] | significant increase | significantly higher exploration times | – | – | – | – | – | – | – | – | – | – | – | – | – | – | – | – | – | Exploration time for the novel object ([1]; short-term memory, test phase, 2 mg/kg p.o. + scopolamine 1 mg/kg i.p.): 21.59 ± 2.44 s; Retention (transfer latency time, TLT) ([2]; 2 mg/kg p.o. for 7 days): 25.57 ± 1.93 s; Retention (transfer latency time, TLT) ([2]; 2 mg/kg p.o. for 7 days, listed as donepezil): 25.57 ± 1.93 s
2 | COc1ccc2c3c1O[C@H]1C[C@@H](O)C=C[C@@]31CCN(C)C2 [Galanthamine, reference compound] | – | – | – | – | – | – | – | – | – | – | – | – | – | – | – | – | – | – | – | inhibition at 62.5 µg/mL (BChE): 61.35 ± 0.18%; inhibition at 125 µg/mL (BChE): 66.2 ± 0.15%; inhibition at 250 µg/mL (BChE): 73.42 ± 0.11%; inhibition at 500 µg/mL (BChE): 78.62 ± 0.17%
3 | Cc1ccc(/C=C/C(=O)/C=C/c2ccc(C)cc2)cc1 [h1, (1E,4E)-1,5-Di-p-tolylpenta-1,4-dien-3-one] | significant increase | – | comparable values | 33.13 ± 2.16 s | 26.18 ± 2.32 s | 37.16 ± 0.12% | 46.25 ± 0.13% | 51.91 ± 0.14% | 56.42 ± 0.16% | 62.16 ± 0.04% | 927 µM | 45.63 ± 0.13% | 54.34 ± 0.17% | 58.12 ± 0.16% | 68.07 ± 0.18% | 79.67 ± 0.21% | 399 µM | no promising results | no prominent | –
4 | COc1ccc(/C=C/C(=O)/C=C/c2ccc(OC)cc2)cc1 [h2, (1E,4E)-1,5-bis(4-Methoxyphenyl)penta-1,4-dien-3-one] | significant increase | significantly more time exploring the novel object | – | 31.51 ± 2.73 s | 25.32 ± 2.42 s | 41.82 ± 0.18% | 48.61 ± 0.15% | 57.22 ± 0.01% | 64.38 ± 0.06% | 69.77 ± 0.03% | 503 µM | 46.88 ± 0.15% | 53.57 ± 0.17% | 61.21 ± 0.18% | 73.79 ± 0.12% | 76.23 ± 0.15% | 317 µM | significantly reversed | reversed | –
5 | O=C(/C=C/c1ccc(Cl)cc1)/C=C/c1ccc(Cl)cc1 [h3, (1E,4E)-1,5-bis(4-Chlorophenyl)penta-1,4-dien-3-one] | significant increase | significantly more time exploring the novel object | – | 25.26 ± 2.51 s | 21.27 ± 2.92 s | 49.25 ± 0.02% | 58.33 ± 0.13% | 62.41 ± 0.19% | 69.52 ± 0.12% | 78.72 ± 0.16% | 222 µM | 53.53 ± 0.12% | 62.44 ± 0.16% | 69.51 ± 0.13% | 77.25 ± 0.11% | 83.31 ± 0.13% | 96.9 µM | significantly reversed | reversed | –
6 | CN(C)c1ccc(/C=C/C(=O)/C=C/c2ccc(N(C)C)cc2)cc1 [h4, (1E,4E)-1,5-bis(4-(Dimethylamino)phenyl)penta-1,4-dien-3-one] | no promising results | – | comparable values | 35.71 ± 1.13 s | 30.42 ± 1.24 s | 27.16 ± 0.11% | 35.33 ± 0.19% | 42.62 ± 0.12% | 49.51 ± 0.16% | 56.32 ± 0.18% | 1600 µM | 31.41 ± 0.13% | 39.45 ± 0.04% | 46.32 ± 0.15% | 58.16 ± 0.11% | 63.51 ± 0.17% | 920 µM | no promising results | no prominent | –
7 | O=C(/C=C/c1ccc([N+](=O)[O-])cc1)/C=C/c1ccc([N+](=O)[O-])cc1 [h5, (1E,4E)-1,5-bis(4-Nitrophenyl)penta-1,4-dien-3-one] | no promising results | – | no promising results | 34.71 ± 1.37 s | 31.51 ± 1.54 s | – | – | – | – | – | – | – | – | – | – | – | – | no promising results | no prominent | IC50 (BChE): 3050 µM; inhibition at 62.5 µg/mL (BChE): 16.2 ± 0.83%; inhibition at 125 µg/mL (BChE): 20.3 ± 0.31%; inhibition at 250 µg/mL (BChE): 32.73 ± 0.01%; inhibition at 500 µg/mL (BChE): 43.51 ± 0.13%; inhibition at 1000 µg/mL (BChE): 51.82 ± 0.16%; IC50 (AChE): 1950 µM; inhibition at 62.5 µg/mL (AChE): 26.45 ± 0.18%; inhibition at 125 µg/mL (AChE): 35.51 ± 0.06%; inhibition at 250 µg/mL (AChE): 41.27 ± 0.04%; inhibition at 500 µg/mL (AChE): 47.33 ± 0.16%; inhibition at 1000 µg/mL (AChE): 58.41 ± 0.13%
